Source: the NIST ThermoML archive (doi:10.1016/j.fluid.2015.03.016)
Several values for one entry are separate records, joined by “and”; a condition that tells them apart may be missing. Equal entries are not always repeated.

Conditions: Liquid

CCCOC(=O)CCCCC(=O)OCCC [dipropyl hexanedioate]
Conditions	viscosity
303.14 K, 1110 kPa, Vibrating wire viscometry	3.606 mPa·s and 3.607 mPa·s
303.14 K, 1140 kPa, Vibrating wire viscometry	3.609 mPa·s
303.14 K, 5210 kPa, Vibrating wire viscometry	3.78 mPa·s
303.14 K, 5220 kPa, Vibrating wire viscometry	3.781 mPa·s and 3.776 mPa·s
303.14 K, 18280 kPa, Vibrating wire viscometry	4.327 mPa·s
303.14 K, 18290 kPa, Vibrating wire viscometry	4.33 mPa·s and 4.331 mPa·s
303.15 K, 2810 kPa, Vibrating wire viscometry	3.653 mPa·s and 3.654 mPa·s
303.15 K, 2820 kPa, Vibrating wire viscometry	3.657 mPa·s
303.15 K, 10310 kPa, Vibrating wire viscometry	3.975 mPa·s
303.15 K, 10320 kPa, Vibrating wire viscometry	3.972 mPa·s
303.15 K, 15230 kPa, Vibrating wire viscometry	4.218 mPa·s
303.15 K, 15260 kPa, Vibrating wire viscometry	4.213 mPa·s
303.15 K, 15310 kPa, Vibrating wire viscometry	4.218 mPa·s
313.15 K, 2710 kPa, Vibrating wire viscometry	2.934 mPa·s and 2.931 mPa·s
313.15 K, 15330 kPa, Vibrating wire viscometry	3.354 mPa·s and 3.356 mPa·s and 3.358 mPa·s
313.15 K, 18290 kPa, Vibrating wire viscometry	3.441 mPa·s and 3.443 mPa·s
313.16 K, 1200 kPa, Vibrating wire viscometry	2.882 mPa·s
313.16 K, 1210 kPa, Vibrating wire viscometry	2.879 mPa·s
313.16 K, 1220 kPa, Vibrating wire viscometry	2.882 mPa·s
313.16 K, 2700 kPa, Vibrating wire viscometry	2.933 mPa·s
313.16 K, 5180 kPa, Vibrating wire viscometry	3.01 mPa·s
313.16 K, 5190 kPa, Vibrating wire viscometry	3.016 mPa·s
313.16 K, 10460 kPa, Vibrating wire viscometry	3.178 mPa·s
313.16 K, 10480 kPa, Vibrating wire viscometry	3.176 mPa·s
313.16 K, 10490 kPa, Vibrating wire viscometry	3.177 mPa·s
313.16 K, 18290 kPa, Vibrating wire viscometry	3.445 mPa·s
313.18 K, 101.33 kPa, Capillary tube (Ostwald / Ubbelohde) method	2.888 mPa·s
323.1 K, 101.33 kPa, Capillary tube (Ostwald / Ubbelohde) method	2.352 mPa·s
323.15 K, 1160 kPa, Vibrating wire viscometry	2.359 mPa·s
323.15 K, 1170 kPa, Vibrating wire viscometry	2.356 mPa·s
323.15 K, 1180 kPa, Vibrating wire viscometry	2.36 mPa·s
323.15 K, 15180 kPa, Vibrating wire viscometry	2.729 mPa·s
323.16 K, 2710 kPa, Vibrating wire viscometry	2.409 mPa·s and 2.408 mPa·s
323.16 K, 2720 kPa, Vibrating wire viscometry	2.412 mPa·s
323.16 K, 5260 kPa, Vibrating wire viscometry	2.464 mPa·s
323.16 K, 5270 kPa, Vibrating wire viscometry	2.462 mPa·s
323.16 K, 15200 kPa, Vibrating wire viscometry	2.731 mPa·s
323.17 K, 10210 kPa, Vibrating wire viscometry	2.598 mPa·s
323.17 K, 10220 kPa, Vibrating wire viscometry	2.597 mPa·s
323.17 K, 18240 kPa, Vibrating wire viscometry	2.814 mPa·s
323.17 K, 18260 kPa, Vibrating wire viscometry	2.816 mPa·s
323.17 K, 18270 kPa, Vibrating wire viscometry	2.812 mPa·s
333.14 K, 2610 kPa, Vibrating wire viscometry	2.006 mPa·s
333.14 K, 2620 kPa, Vibrating wire viscometry	2.009 mPa·s
333.15 K, 2620 kPa, Vibrating wire viscometry	2.009 mPa·s
333.15 K, 5110 kPa, Vibrating wire viscometry	2.05 mPa·s and 2.052 mPa·s
333.15 K, 5130 kPa, Vibrating wire viscometry	2.052 mPa·s
333.15 K, 15200 kPa, Vibrating wire viscometry	2.274 mPa·s
333.15 K, 15220 kPa, Vibrating wire viscometry	2.273 mPa·s
333.15 K, 18260 kPa, Vibrating wire viscometry	2.339 mPa·s
333.15 K, 18290 kPa, Vibrating wire viscometry	2.338 mPa·s
333.15 K, 18300 kPa, Vibrating wire viscometry	2.343 mPa·s
333.16 K, 1090 kPa, Vibrating wire viscometry	1.975 mPa·s
333.16 K, 1100 kPa, Vibrating wire viscometry	1.979 mPa·s
333.16 K, 1120 kPa, Vibrating wire viscometry	1.979 mPa·s
333.16 K, 10160 kPa, Vibrating wire viscometry	2.167 mPa·s
333.16 K, 10180 kPa, Vibrating wire viscometry	2.163 mPa·s
333.16 K, 10190 kPa, Vibrating wire viscometry	2.165 mPa·s
333.16 K, 15220 kPa, Vibrating wire viscometry	2.273 mPa·s
333.22 K, 101.33 kPa, Capillary tube (Ostwald / Ubbelohde) method	1.97 mPa·s
